Measurements published in patent publication US7034020B2, “Derivatives of butyric acid and uses thereof” (The University of Arkansas for Medical Science, priority 1999, dated 2006).
“And” between values parts separate entries of the source, which are not always exact repeats. Equal entries are not always repeated. Where two headings read alike, the source gives them in different places.

Key:
[1] = tested on: KLH-specific Th1 cells (clone D3); assay: IL-2-induced proliferation of Th1 cells in the presence of butyrate derivatives; assay type: cell-based, C57BL/10 mice; settings: for Suppression of IL-2-induced proliferation of Th1 cells: 10% Con A CM, various concentrations, proliferation after 2 days
Procedure: KLH-specific Th1 cells (clone D3) are stimulated with IL-2 (10% Con A CM) in the presence of different concentrations of n-butyrate or butyrate derivatives. In FIG. 2A Th1 cell proliferation is measured after 2 days. In FIG. 2B, the inhibitors are washed out after 24 hours, and the Th1 cells reincubated with fresh IL-2-containing medium. Proliferation of the Th1 cells restimulated with IL-2 in the absence of the inhibitors is measured after an additional 2 days. This experiment was repeated three times, and the proliferation data represents the means of the […] experiments.
The KLH-specific were developed in C57BL/10 mice, and characterized as Th1 clones based on their ability to secrete IL-2, but not IL-4. The Th1 clones were passed every 7–14 days using KLH, irradiated syngeneic spleen cells as antigen-presenting cells (APC), and IL-2-containing Con A CM using a previously described protocol (Gilbert et al., 1990).
To test the ability of the butyrate derivatives to suppress T cell activity […], Th1 cells [(5×10^4 cells/well in 96 well plates (Costar)] are stimulated with 10% IL-2-containing Con A CM in the presence of various concentrations of different butyrate derivatives. In some cultures, Th1 cell proliferation is measured after two days. In other cultures, the Th1 cells are washed after 24 hours, and fresh IL-2-containing medium is added. Proliferation is measured in the washed, IL-2-restimulated cultures after an additional 2 days.

[2] = tested on: total anti-ovalbumin antibody in the serum; assay: Primary anti-ovalbumin antibody production in vivo (ELISA), derivatives on Days 1–3; parameters: species or system C57BL/10 mice; settings: 0.091 mmol ip Days 1–3; serum day 10; versus saline
Procedure: C57BL/10 mice are injected ip on Day 0 with ovalbumin followed by ip injections of saline, or one of three different butyrate derivatives on Days 1–3.
The butyrate derivatives are tested for their ability to suppress lymphocyte activity in vivo. C57BL/10 mice (5 mice/group) are injected ip with 100 μg of ovalbumin in conjunction with complete Freund's adjuvant on Day 0. In one experiment, the mice also receive one ip injection per day of the butyrate derivatives (0.091 mmol) on Days 1–3. Serum samples are obtained 10 days after the initial injection with ovalbumin, and tested for the presence of anti-ovalbumin antibodies using an ELISA. To perform the ELISA 96 well plates (Costar 3595) are first incubated with ovalbumin (100 μl/well of 100 μg/ml in PBS) overnight at 4° C. The plates are then washed 4 times with PBS and 0.5% Tween 20, blocked with 1% fetal calf serum for 30 minutes at 37° C., and washed again. Individual serum samples are added (diluted 1/100 or 1/1000 in PBS), and the plates are incubated for 2 hours at 20° C. The plates were next washed 7 times with PBS/Tween, and alkaline phosphate (AP)-labeled goat anti-mouse IgG, IgA, IgM (H+L) (Zymed) is added ( 1/1000) for 1 hour at 20° C. The plates are again washed 7 times with PBS/Tween, alkaline phosphate substrate (1 mg/ml) is added. After 10 minutes, Ig levels are quantified by an ELISA reader (absorbance 405 nm). The concentration of anti-ovalbumin is determined by comparison with a standard curve obtained using mouse anti-ovalbumin antibody (Sigma; St. Louis, Mo.). To measure isotype-specific anti-ovalbumin antibodies, serum samples (diluted at 1/300 or 1/1000) are incubated on the ovalbumin-coated plates as described above. […] Ig levels are presented as OD measurements.

[3] = humans; perfused at doses as high as 2 g/kg/day (Perrine et al., 1994); cited from earlier work
[4] = tested on: Anti-HGG antibody in serum; assay: Primary anti-HGG antibody response in mice treated with n-butyrate; assay type: in vivo; parameters: Anti-HGG antibody in serum of individual mice: unit not given here; settings: for Anti-HGG antibody in serum, group mean (x) / Anti-HGG antibody in serum of individual mice: ELISA day 9; for Anti-HGG antibody in serum, group mean (x): mean of 5 mice; for Anti-HGG antibody in serum of individual mice: HGG 100 μg ip day 0
Excerpt: Prior to testing the suppressive effects of butyrate prodrugs in vivo, the ability of n-butyrate to inhibit a primary antibody response in mice was examined.

[5] = Daniel et al., 1989, cited from earlier work
[6] = Experiment 1, 5.5 mg n-butyrate ip days 2–5
[7] = Experiment 2, 5.5 mg n-butyrate ip days 2–6

CCCC(=O)OCCN1CCN(C(=O)CCC)CC1.Cl [BEB, 2-(4-Butanoylpiperazinyl)ethyl butanoate hydrochloride]
Suppression of IL-2-induced proliferation of Th1 cells [1]: comparable to n-butyrate
Proliferation to IL-2 after compounds are washed out ([1]; washed after 24 hours, fresh IL-2 medium, additional 2 days): regained their ability to proliferate to IL-2
Effect on primary antigen-specific antibody production in vivo [2]: significantly less antigen-specific antibody than control mice

CCCC(=O)NCCN1CCOCC1.Cl [MEBA, 2-(4-Morpholinyl)ethyl butanamide hydrochloride]
Suppression of IL-2-induced proliferation of Th1 cells [1]: does not suppress
Effect on primary antigen-specific antibody production in vivo [2]: unable to suppress

CCCC(=O)O.CCCC(=O)O.CCCC(=O)O.CCCC(=O)O.N=C(N)NCCC[C@H](N)C(=O)O.N=C(N)NCCC[C@H](N)C(=O)O.N=C(N)NCCC[C@H](N)C(=O)O [arginine salt of butyrate]
Toxicity [3]: nontoxic

CCCC(=O)O [n-butyrate]
Anti-HGG antibody in serum, group mean (x) [4, 6]: x = 86 ± 72
Anti-HGG antibody in serum of individual mice [4, 6]: 202 and 91 and 29 and 83 and 24
Anti-HGG antibody in serum, group mean (x) [4, 7]: x = 12 ± 11
Anti-HGG antibody in serum of individual mice [4, 7]: 12 and 6 and 4 and 9 and 31
Suppression of primary antibody response ([4]; mice, n-butyrate ip, versus control): 40–50%
half-life in vivo [5]: six
half-life in vivo ([5]; listed as n-buytyrate): 3 to 6 min
